Measured values published in ChEMBL document CHEMBL1121846, “Synthesis and pharmacological evaluation of sulfonium analogues of dopamine: nonclassical dopamine agonists” (J Med Chem, 1981).

Columns and labels:
Rattus norvegicus [1] = organism: Rattus norvegicus; assay: Contralateral rotation produced by intrastriatal injection in rats with unilateral 6-hydroxydopamine-induced lesions of the substantia nigra at 2 microL; turns/5 min; type: functional
Rattus norvegicus [2] = organism: Rattus norvegicus; assay: Maximal degree of inhibition at 3-30 uM concentration was determined from displacement of [3H]-dopamine binding to rat brain striatal membrane; type: functional
Rattus norvegicus [3] = organism: Rattus norvegicus; settings: Striatum, 1 uM
Rattus norvegicus [4] = organism: Rattus norvegicus; assay: Compound concentration required to reduce specific binding of tritiated dopamine to rat brain striatal membrane by 50 % was reported
Rattus norvegicus [5] = organism: Rattus norvegicus; assay: Contralateral rotation produced by intrastriatal injection in rats with unilateral 6-hydroxydopamine-induced lesions of the substantia nigra at 10 nmol; turns/5 min; type: functional
Rattus norvegicus [6] = organism: Rattus norvegicus; assay: Maximal degree of inhibition was determined from displacement of [3H]dopamine binding to rat brain striatal membrane; type: functional
Rattus norvegicus [7] = organism: Rattus norvegicus; assay: Contralateral rotation produced by intrastriatal injection in rats with unilateral 6-hydroxydopamine-induced lesions of the substantia nigra at 90 nmol; turns/5 min; type: functional
Rattus norvegicus [8] = organism: Rattus norvegicus; assay: Contralateral rotation produced by intrastriatal injection in rats with unilateral 6-hydroxydopamine-induced lesions of the substantia nigra at 30 nmol; turns/5 min; type: functional
Rattus norvegicus [9] = organism: Rattus norvegicus; assay: Compound concentration required to reduce specific binding of tritiated dopamine to rat brain striatal membrane
Rattus norvegicus [10] = organism: Rattus norvegicus; assay: Contralateral rotation produced by intrastriatal injection in rats with unilateral 6-hydroxydopamine-induced lesions of the substantia nigra at 10 nmol; type: functional

In the case of `O=C1O[C@H]([C@@H](O)CO)C(O)=C1O` [ASCORBIC ACID], the Rate of rotation (Rattus norvegicus [1]) is reported as 4.5.

With `C[S+](C)C` the inhibition (Rattus norvegicus [2]) was 9%.

Work on `NCCc1ccc(O)c(O)c1` [DOPAMINE] yielded a Total binding (Rattus norvegicus [3]) of 72%, an IC50 (Rattus norvegicus [4]) of 29 nM and a Rate of rotation (Rattus norvegicus [5]) of 39.75.

`C[S+](C)CCc1ccc(O)c(O)c1.[I-]` gave an inhibition (Rattus norvegicus [6]) of 19%, a Rate of rotation (Rattus norvegicus [7]) of 31.5 and a Rate of rotation (Rattus norvegicus [5]) of 11.25. The Rate of rotation (Rattus norvegicus [8]) was 20.75 and the IC50 (Rattus norvegicus [9]) was 440 nM.

For `C[S+](C)CC(=O)c1ccc(O)c(O)c1.[I-]`, the inhibition (Rattus norvegicus [6]) was 29%, the Rate of rotation (Rattus norvegicus [7]) was 38.83 and the Rate of rotation (Rattus norvegicus [8]) was 25.33. The Rate of rotation (Rattus norvegicus [10]) was 8.4 turns 5min-1 and the IC50 (Rattus norvegicus [9]) was 370 nM.
